pKd: −log10 of the molar value.
Assays:
[1] = target: T1, Recombinantly-expressed human FABP4 (Homo sapiens, UniProt P15090); test: Isothermal titration calorimetry (ITC) binding affinity to FABP4; conditions: one-site binding model, read-out: KD (ITC titration of FABP4, Figure S1)
T1 construct: made in house
Method: A prior fragment screen identified a series of bi-aryl sulfonamides that bound to FABP4. Analogues of this chemical sulfonamide scaffold were then purchased, which led to the identification of the compounds used in this study (MFP-0011462, MFP-0012314, MFP-0012318, and MFP-0012328). Their predicted LogP and tPSA values were calculated in Vortex v2020.1.117658-s (Dotmatics, Boston, MA). The binding affinity of these four compounds was characterised by isothermal titration calorimetry (ITC). ITC was carried out using an iTC200 microcalorimeter (MicroCal, United Kingdom) with a coin shaped sample cell (201.4 μL) with stirring at 1000 rpm at 25°C. Titrations were performed in an ITC buffer (50 mM sodium phosphate, 50 mM NaCl, pH 7.4 with 2% DMSO). Compounds were diluted from concentrated stocks in ITC buffer and loaded into the titration syringe at a concentration of 1 mM, with a final DMSO concentration of 2% (v/v). Recombinantly-expressed human FABP4 was prepared as described previously (Lee et al. [2015a]) in an identical buffer at a protein concentration of 80 μM and placed in the sample cell. A thermal equilibration step at 25°C was followed by an initial 180 s delay step and subsequently an initial 0.2 μL injection. 16 serial injections of the 1 mM compound solution (2 μL each) were made at intervals of 220 s with continuous stirring of the solution in the sample cell. The iTC200 control software was used to operate and acquire raw data as power (microcalories/sec) vs time (min). The data were processed using the Origin 7.0 software (MicroCal) and the binding affinity (KD) was calculated by fitting the data to a one-site binding model.

[2] = 1D 1H NMR aqueous solubility in phosphate buffer; type: physicochemical; conditions: kinetic from dmso stock, phosphate buffer pH 7.4 in D2O, 0.1% d6-DMSO, 25 °C, range 3.125–100 µM, read-out: Soluble in phosphate buffer up to (concentration)
Method: 1D ^1H NMR was employed to determine the solubility limits of the four MFP compounds and BMS309403 in phosphate buffer. This method has been commonly used to determine compound solubility in the drug discovery setting (Devine et al. [2014]; Lee et al. [2015b]; Lin et al. [2009]). A 100 mM of stock solution of each compound was first prepared in d6-DMSO. These stock solutions were then added into phosphate buffer (50 mM sodium phosphate, 25 mM NaCl, 100 µM of DSS, pH 7.4 in D2O) to achieve a final d6-DMSO concentration of 0.1% (v/v) which is equivalent to the DMSO concentration present in BV-2 cell culture experiments. All samples were inspected to note whether visible precipitates were formed. ^1H NMR spectra for all of the samples were acquired using Bruker Avance III 600 MHz spectrometer at 25 °C. Experimental data were acquired using a relaxation delay of 5 s with 128 scans, and water suppression using an excitation sculpting pulse scheme. Mestrelab Research 13.0 software was used to integrate the proton resonances of the compounds. A well-resolved peak (i.e. no overlaps with any other peaks) in the spectrum of each compound was chosen for integration, relative to the DSS peak (at 0 ppm). […] In addition, the chemical shifts of the resonances in the 1D ^1H NMR spectra were monitored.

[3] = test system: BV-2 cells; test: MTT assay of BV-2 cell viability; type: cell-based, mouse; conditions: 24 h
Method: BV-2 cells were cultured in DMEM/F-12 media supplemented with 10% (v/v) FBS and 1% (v/v) penicillin/streptomycin, and kept at 37 °C in a humidified incubator ([…], 5% CO2) for all studies. Cells with 80% confluency were used for experiments. At 24 h post-seeding, BV-2 cells were treated with either of the MFP compounds (at concentrations detailed below) or vehicle (0.1% (v/v) DMSO) and 1 µg/mL LPS for a period of 24 h. In some experiments (detailed in Results), BV-2 cells were exposed to MFP compounds for 2 h before a 24 h exposure to LPS and MFP compounds, and in some studies, in the presence of FABP4 siRNA using a 24 h treatment that we have previously employed (Low et al. [2021]). In brief, BV-2 cells were washed once 4 h post-seeding with blank DMEM/F-12 media. siRNA complexes (containing FABP4 siRNA, target sequence 5’-[…]-3’ or AllStar Negative Control siRNA, target sequence proprietary) were added dropwise onto the cells. siRNA complexes were prepared by mixing siRNA and HiPerfect transfection reagent together in FBS-free DMEM/F12 media and incubating for 15 min to allow the siRNA complexes to form. The cells were incubated with the siRNA complex for 5 min, after which, DMEM/F12 media containing FBS was added into each well to dilute the siRNA complexes to 5 nM.
To determine the most appropriate and tolerable concentration of MFP compounds in BV-2 cells, an MTT assay was performed. Following treatment with increasing concentrations of MFP compounds for 24 h, BV-2 cells were rinsed once with PBS prior to being incubated with 0.45 mg/mL MTT reagent for 4 h in a 37 °C, 5% CO2 incubator. After that, the MTT reagent was removed and 150 µL of DMSO was added into all wells for 30 min. The plate was then immediately read on a Perkin-Elmer Enspire fluorescence plate reader (Boston, MA) at 540 nm. Background subtraction was performed before the percentage cell viability was calculated and expressed as a ratio of mean absorbance of MFP-treated cells over mean absorbance of vehicle-treated cells.

T1 sequence (P15090 whole entry): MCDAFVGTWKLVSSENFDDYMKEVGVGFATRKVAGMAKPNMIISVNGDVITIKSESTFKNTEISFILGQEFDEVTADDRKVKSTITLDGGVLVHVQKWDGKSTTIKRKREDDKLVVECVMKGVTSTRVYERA

O=C(O)c1cccc(NS(=O)(=O)c2ccc(Cl)c(Cl)c2)c1 [MFP-0012328]
pKd [1]: 6.50
solubility [2]: ≥ 100 µM
fold reduction in cell viability ([3]; 75 µM and 100 µM of MFP-0012328, 100 µM of the other MFP compounds, range over the compounds): 0.17–0.27 fold
BV-2 cell viability relative to vehicle control ([3]; 2–50 µM, MTT): no significant differences

Source: PMC12000251, “Evaluation of the Anti-Inflammatory Effects of Novel Fatty Acid-Binding Protein 4 Inhibitors in Microglia” (Journal of Neuroimmune Pharmacology, 2025)
